In assay [1] the test system is SKBR3 (PI3Kα-Wild Type) cell line. Briefly: HTRF phospho-AKT(S473) cell assay in SKBR3 cells. The class given is cell-based, human. The conditions noted are these: Homo sapiens, SK-BR-3; SKBR3 (PI3Kα-Wild Type) cells, HTRF phospho-AKT(S473), 2 hours compound incubation, PDGF-BB stimulated. In short, it runs like this: (§1)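 Cells plated overnight (T47D in RPMI/10% FBS/0.2 units/mL insulin; SKBR3 in McCoy's 5A/10% FBS), then given 12-point 1:3 compound series (top 5 μM T47D, 10 μM SKBR3; ≤0.5% DMSO) for 2 h at 37° C. SKBR3 stimulated with 70 ng/ml PDGF-BB for final 15 min. Lysate pAKT(S473) by HTRF; IC50 calculated.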
Background: TR-FRET usually uses a lanthanide donor and a delayed reading to cut background.

In assay [2] the test system is T47D (PI3Kα-H1047R) cell line. Briefly: HTRF phospho-AKT(S473) cell assay in T47D cells. The class given is cell-based, human. The conditions noted are these: Homo sapiens; T47D (PI3Kα-H1047R) cells, HTRF phospho-AKT(S473), 2 hours compound incubation. Put shortly: as §1

The IC50 is the concentration needed to halve the response being measured.

With `CO[C@H]1C[C@@H](S(=O)(=O)NC(=O)c2nc(Cl)ccc2N[C@H](C)c2cc(C)cc3c(=O)n(C)c(N4Cc5ccc(F)cc5C4)nc23)C1` [Compound 378, 6-chloro-3-(((R)-1-(2-(5-fluoroisoindolin-2-yl)-3,6-dimethyl-4-oxo-3,4-dihydroquinazolin-8-yl)ethyl)amino)-N-(((1s,3S)-3-methoxycyclobutyl)sulfonyl)picolinamide], the IC50 in assay [1] was not below 5 µM; in assay [2] it was 0.25 to 0.5 µM.
On to `CO[C@H]1C[C@H](S(=O)(=O)NC(=O)c2nc(Cl)ccc2N[C@H](C)c2cc(C)cc3c(=O)n(C)c(N4Cc5ccc(F)cc5C4)nc23)C1` [Compound 379, 6-chloro-3-(((R)-1-(2-(5-fluoroisoindolin-2-yl)-3,6-dimethyl-4-oxo-3,4-dihydroquinazolin-8-yl)ethyl)amino)-N-(((1r,3R)-3-methoxycyclobutyl)sulfonyl)picolinamide], for which the IC50 was not below 5 µM in assay [1] and 0.25 to 0.5 µM in assay [2].
Turning to `C[C@@H](Nc1ccc(Cl)nc1C(=O)NS(C)(=O)=O)c1cc(C2CC2)cc2c(=O)n(C)c(N3C[C@@H]4[C@H](C3)[C@H]4c3ccn(C)n3)nc12` [Compound 382, 6-chloro-3-(((R)-1-(6-cyclopropyl-3-methyl-2-((1R,5S,6R)-6-(1-methyl-1H-pyrazol-3-yl)-3-azabicyclo[3.1.0]hexan-3-yl)-4-oxo-3,4-dihydroquinazolin-8-yl)ethyl)amino)-N-(methylsulfonyl) picolinamide], the 50% inhibitory concentration (IC50) fell in the range of 1 to 5 µM in assay [1] and 0.25 to 0.5 µM in assay [2].
In the same order, the values of `Cc1cc([C@@H](C)Nc2ccc(Cl)nc2C(=O)NS(C)(=O)=O)c2nc(N3CCC[C@H](Oc4cnc(C)cn4)C3)n(C)c(=O)c2c1` [Compound 383, 6-chloro-3-(((R)-1-(3,6-dimethyl-2-((S)-3-((5-methylpyrazin-2-yl)oxy)piperidin-1-yl)-4-oxo-3,4-dihydroquinazolin-8-yl)ethyl)amino)-N-(methylsulfonyl) picolinamide] are not below 5 µM and 0.25 to 0.5 µM.
As for `Cc1cc([C@@H](C)Nc2ccc(Cl)nc2C(=O)NS(C)(=O)=O)c2nc(N3C[C@@H]4[C@H](C3)[C@H]4c3ccnc(C)c3)n(C)c(=O)c2c1` [Compound 384, 6-chloro-3-(((R)-1-(3,6-dimethyl-2-((1R,5S,6S)-6-(2-methylpyridin-4-yl)-3-azabicyclo[3.1.0]hexan-3-yl)-4-oxo-3,4-dihydroquinazolin-8-yl)ethyl)amino)-N-(methylsulfonyl) picolinamide], the IC50 in assay [1] was 1 to 5 µM; in assay [2] it was less than 0.25 µM.
Regarding `Cc1cc([C@@H](C)Nc2ccc(Cl)nc2C(=O)NS(C)(=O)=O)c2nc(N3C[C@@H]4[C@H](C3)[C@H]4c3cccnc3C)n(C)c(=O)c2c1` [Compound 385, 6-chloro-3-(((R)-1-(3,6-dimethyl-2-((1R,5S,6S)-6-(2-methylpyridin-3-yl)-3-azabicyclo[3.1.0]hexan-3-yl)-4-oxo-3,4-dihydroquinazolin-8-yl)ethyl)amino)-N-(methylsulfonyl) picolinamide], the IC50 in assay [1] is 1 to 5 µM; in assay [2] it was less than 0.25 µM.
Consider `C[C@@H](Nc1ccc(Cl)nc1C(=O)NS(C)(=O)=O)c1cc(C2CC2)cc2c(=O)n(C)c(N3C[C@@H]4[C@H](C3)[C@H]4c3cnn(C)c3)nc12` [Compound 386, 6-chloro-3-(((R)-1-(6-cyclopropyl-3-methyl-2-((1R,5S,6S)-6-(1-methyl-1H-pyrazol-4-yl)-3-azabicyclo[3.1.0]hexan-3-yl)-4-oxo-3,4-dihydroquinazolin-8-yl)ethyl)amino)-N-(methylsulfonyl) picolinamide], for which the IC50 in assay [1] was 1 to 5 µM; in assay [2], less than 0.25 µM.
`Cc1cc([C@@H](C)Nc2ccc(Cl)nc2C(=O)NS(C)(=O)=O)c2nc(N3C[C@@H]4[C@H](C3)[C@H]4c3cn(C)nn3)n(C)c(=O)c2c1` [Compound 387, 6-chloro-3-(((R)-1-(3,6-dimethyl-2-((1R,5S,6R)-6-(1-methyl-1H-1,2,3-triazol-4-yl)-3-azabicyclo[3.1.0]hexan-3-yl)-4-oxo-3,4-dihydroquinazolin-8-yl)ethyl)amino)-N-(methylsulfonyl) picolinamide]: the IC50 in assay [1] was 1 to 5 µM; in assay [2], less than 0.25 µM.
Take `C[C@@H](Nc1ccc(Cl)nc1C(=O)NS(C)(=O)=O)c1cc(F)cc2c(=O)n(C)c(N3CC[C@H](Oc4cnn(C)c4)C3)nc12` [Compound 388, 6-chloro-3-(((R)-1-(6-fluoro-3-methyl-2-((S)-3-((1-methyl-1H-pyrazol-4-yl)oxy)pyrrolidin-1-yl)-4-oxo-3,4-dihydroquinazolin-8-yl)ethyl)amino)-N-(methylsulfonyl) picolinamide]: the IC50 was 1 to 5 µM in assay [1] and less than 0.25 µM in assay [2].
Regarding `Cc1cc([C@@H](C)Nc2ccc(Cl)nc2C(=O)NS(C)(=O)=O)c2nc(N3CCC(c4ccnn4C)CC3)n(C)c(=O)c2c1` [Compound 389, (R)-6-chloro-3-((1-(3,6-dimethyl-2-(4-(1-methyl-1H-pyrazol-5-yl)piperidin-1-yl)-4-oxo-3,4-dihydroquinazolin-8-yl)ethyl)amino)-N-(methylsulfonyl) picolinamide], the IC50 in assay [1] was 1 to 5 µM; in assay [2], less than 0.25 µM.
For the compound `Cc1cc([C@@H](C)Nc2ccc(Cl)nc2C(=O)NS(C)(=O)=O)c2nc(-c3ccc(OC[C@@H]4CCN(C)CC4(F)F)nc3)n(C)c(=O)c2c1` [Compound 390, 6-chloro-3-(((R)-1-(2-(6-(((S)-3,3-difluoro-1-methylpiperidin-4-yl)methoxy)pyridin-3-yl)-3,6-dimethyl-4-oxo-3,4-dihydroquinazolin-8-yl)ethyl)amino)-N-(methylsulfonyl) picolinamide], the half-maximal inhibitory concentration (IC50) in assay [1] is not below 5 µM; in assay [2] it was less than 0.25 µM.
On to `Cc1cc([C@@H](C)Nc2ccc(Cl)nc2C(=O)NS(C)(=O)=O)c2nc(N3C[C@@H]4[C@H](C3)[C@H]4c3nn(C)cc3F)n(C)c(=O)c2c1` [Compound 391, 6-chloro-3-(((R)-1-(2-((1R,5S,6R)-6-(4-fluoro-1-methyl-1H-pyrazol-3-yl)-3-azabicyclo[3.1.0]hexan-3-yl)-3,6-dimethyl-4-oxo-3,4-dihydroquinazolin-8-yl)ethyl)amino)-N-(methylsulfonyl) picolinamide], for which the IC50 in assay [1] was in the range of 1 to 5 µM; in assay [2], 0.25 to 0.5 µM.
In the case of `Cc1cc([C@@H](C)Nc2ccc(Cl)nc2C(=O)NS(C)(=O)=O)c2nc(N3C[C@@H]4[C@H](C3)[C@H]4c3ccc(C#N)cn3)n(C)c(=O)c2c1` [Compound 392, 6-chloro-3-(((R)-1-(2-((1R,5S,6R)-6-(5-cyanopyridin-2-yl)-3-azabicyclo[3.1.0]hexan-3-yl)-3,6-dimethyl-4-oxo-3,4-dihydroquinazolin-8-yl)ethyl)amino)-N-(methylsulfonyl) picolinamide], the half-maximal inhibitory concentration (IC50) in assay [1] lay in the range of 1 to 5 µM; in assay [2] it was 0.25 to 0.5 µM.
Regarding `Cc1cc([C@@H](C)Nc2ccc(Cl)nc2C(=O)NS(C)(=O)=O)c2nc(N3C[C@@H]4[C@H](C3)[C@H]4c3ccc(N(C)C)nc3)n(C)c(=O)c2c1` [Compound 393, 6-chloro-3-(((R)-1-(2-((1R,5S,6S)-6-(6-(dimethylamino)pyridin-3-yl)-3-azabicyclo[3.1.0]hexan-3-yl)-3,6-dimethyl-4-oxo-3,4-dihydroquinazolin-8-yl)ethyl)amino)-N-(methylsulfonyl) picolinamide], the IC50 in assay [1] was not below 5 µM; in assay [2], 0.25 to 0.5 µM.
In the same order, the values of `Cc1cc([C@@H](C)Nc2ccc(Cl)nc2C(=O)NS(C)(=O)=O)c2nc(N3C[C@@H]4[C@H](C3)[C@H]4c3cnc(C)cn3)n(C)c(=O)c2c1` [Compound 394, 6-chloro-3-(((R)-1-(3,6-dimethyl-2-((1R,5S,6R)-6-(5-methylpyrazin-2-yl)-3-azabicyclo[3.1.0]hexan-3-yl)-4-oxo-3,4-dihydroquinazolin-8-yl)ethyl)amino)-N-(methylsulfonyl) picolinamide] are 1 to 5 µM and less than 0.25 µM.
On the same counts, the results for `Cc1cc([C@@H](C)Nc2ccc(Cl)nc2C(=O)NS(C)(=O)=O)c2nc(N3C[C@@H]4[C@H](C3)[C@H]4c3ccn(C(C)C)n3)n(C)c(=O)c2c1` [Compound 395, 6-chloro-3-(((R)-1-(2-((1R,5S,6R)-6-(1-isopropyl-1H-pyrazol-3-yl)-3-azabicyclo[3.1.0]hexan-3-yl)-3,6-dimethyl-4-oxo-3,4-dihydroquinazolin-8-yl)ethyl)amino)-N-(methylsulfonyl) picolinamide] are not below 5 µM and 0.25 to 0.5 µM.
Take `Cc1cc([C@@H](C)Nc2ccc(Cl)nc2C(=O)NS(C)(=O)=O)c2nc(N3Cc4cn(C)nc4C3)n(C)c(=O)c2c1` [Compound 396, (R)-6-chloro-3-((1-(3,6-dimethyl-2-(2-methyl-2,6-dihydropyrrolo[3,4-c]pyrazol-5(4H)-yl)-4-oxo-3,4-dihydroquinazolin-8-yl)ethyl)amino)-N-(methylsulfonyl) picolinamide]: the IC50 in assay [1] was 1 to 5 µM; in assay [2] it was less than 0.25 µM.
In the case of `C[C@@H](Nc1ccc(Cl)nc1C(=O)NS(C)(=O)=O)c1cc(C2CC2)cc2c(=O)n(C)c(N3CCC(c4nn(C)cc4F)CC3)nc12` [Compound 397, (R)-6-chloro-3-((1-(6-cyclopropyl-2-(4-(4-fluoro-1-methyl-1H-pyrazol-3-yl)piperidin-1-yl)-3-methyl-4-oxo-3,4-dihydroquinazolin-8-yl)ethyl)amino)-N-(methylsulfonyl) picolinamide], the half-inhibitory concentration (IC50) in assay [1] was not below 5 µM; in assay [2] it was 0.25 to 0.5 µM.

For the origin of these results see patent US12281122B1, “PI3K inhibitors” (Cogent Biosciences, Inc., priority 2023, dated 2025).
